Test system: 885512-296-R-J2-PDC complex spheroid viability
Assay: Anticancer human tumor 885512-296-R-J2-PDC patient-derived breast carcinoma cell line growth inhibition [GQUAD]
Details: for IC50: curve of first compound; for viability, T/C: stronger effect = lower value; active = viability on the fitted dose curve at most 10% of control; inactive = the rest
Source text: DNA G-quadruplex Stabilizer Agents in Combinations in Complex Spheroids
A high-throughput screen of multi-cell type tumor spheroids was designed to identify active combinations of DNA G-quadruplex stabilizer agents and targeted small molecules. Complex spheroids include a stromal component modeled by human endothelial cells (HUVEC) and fibroblasts modeled by human mesenchymal stem cells (MSCs). The concentration ranges selected for each drug and investigational agent were based upon clinically achievable concentrations if the clinical Cmax of the agent was known.
Compounds. The drugs and investigational agents: pidnarulex (CX-5461; NSC782164), APTO-253 (NSC789042), BRACO-19 (NSC847499), peposertib (NSC802822), ceralasertib (NSC780249), elimusertib (NSC800525), camonsertib (NSC841442), AZD-1390 (NSC803789), olaparib (NSC753686), talazoparib (NSC767125), ART-558 (NSC835418), sotorasib (NSC818433), MRTX-1133 (NSC836407), SN-38 (NSC673596), topotecan (NSC609699), etoposide (NSC141540), doxorubicin (NSC123127), gemcitabine (NSC613327), 5-fluorouracil (NSC19893), paclitaxel (NSC125973), vemurafenib (NSC761431), panobinostat (NSC761190), R-306465 (JNJ-16241199; NSC773264), adavosertib (NSC754352), TP-3654 (NSC805149), carboplatin (NSC241240), KSQ-4279 (NSC840948), and staurosporine (NSC755774) were obtained from the National Cancer Institute (NCI) Developmental Therapeutics Program Chemical Repository (34). The FDA-approved anticancer drug set is available from the NCI Developmental Therapeutics Program. […] The stock solutions were prepared in dimethyl sulfoxide (DMSO, Sigma-Aldrich, St. Louis, MO, cat. D2650) at 800-fold the tested concentration and stored at -70 degrees C prior to their use. All drugs and investigational agents were tested over a range starting from a high concentration at or near the clinical Cmax and decreasing in half-log increments. If the clinical Cmax for an agent had not been determined, the highest concentration tested was 10 microM.
2.3 Cell Culture. All cells were maintained in an incubator at 37 degrees C and 5% CO2 with 95% humidity. The PDC lines were cultured according to standard operating procedures established by the NCI PDMR. All PDCs were thawed and cultured in Matrigel-coated flasks prepared with a working solution of 1X Ham's F-12 nutrient mix, without supplementation (Invitrogen, cat. 11765054), 100 U/mL penicillin-streptomycin (Invitrogen, cat. 15140122), and 2.5% Matrigel (Corning Inc., cat. 354248) for the first three passages. The 857933-349-R-J2-PDC line was cultured in 6C/Colon 1B media, which includes advanced DMEM/F-12 (Thermo Fisher Scientific, cat. 12634028), 10 mM HEPES (Thermo Fisher Scientific, cat. 15630080), 1X GlutaMAX supplement (Thermo Fisher Scientific, cat. 35050061), 0.1 mg/mL primocin (InvivoGen, cat. ant-pm-2), 10% defined fetal bovine serum, heat inactivated (HyClone Laboratories Inc., cat. SH30070.03HI), 50% L-WRN conditioned media (ATCC, cat. CRL-3276), 1.25 mM N-Acetyl-L-cysteine (Sigma-Aldrich, cat. A9165), 10 mM nicotinamide (Sigma-Aldrich, cat. N0636), 1X B-27 supplement (Thermo Fisher Scientific, cat. 17504044), 1X N-2 supplement (Thermo Fisher Scientific, cat. 17502048), 10 microM Y-27632 dihydrochloride (Tocris Bioscience, cat. 1254), and 50 ng/mL human EGF recombinant protein (Thermo Fisher Scientific, cat. PHG0311). The 485176-168-R4-J1-PDC line was cultured in Panc media, which includes all 6C/Colon 1B media components plus 100 ng/mL human FGF-10 (Thermo Fisher Scientific, cat. 100-26), 500 nM SB-431542 (Selleckchem, cat. S1067), and gastrin (Tocris, cat. 3006).
[…]

[1] = second compound 0.0316 µM, first compound 0.0316 µM
[2] = second compound 0.0316 µM, first compound 0.316 µM
[3] = second compound 0.1 µM, first compound 0.0316 µM
[4] = second compound 0.1 µM, first compound 0.316 µM
[5] = second compound 0.316 µM, first compound 0.0316 µM
[6] = second compound 0.316 µM, first compound 0.316 µM
[7] = second compound 1 µM, first compound 0.0316 µM
[8] = second compound 1 µM, first compound 0.316 µM
[9] = second compound 3.16 µM, first compound 0.0316 µM
[10] = second compound 3.16 µM, first compound 0.316 µM
[11] = second compound 10 µM, first compound 0.0316 µM
[12] = second compound 10 µM, first compound 0.316 µM
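Also: spheroids exposed to the compounds for one week.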
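For viability, T/C in this document: percent of tumor spheroid viability relative to DMSO vehicle control wells.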

Cc1[nH]c2ccccc2c1CCNCc1ccc(/C=C/C(=O)NO)cc1 + CN(C)c1ccc(Nc2c3ccc(NC(=O)CCN4CCCC4)cc3nc3cc(NC(=O)CCN4CCCC4)ccc23)cc1
active: viability, T/C [2] 3.59% | viability, T/C [4] 4.19% | viability, T/C [6] 4.61% | viability, T/C [8] 4.03% | viability, T/C [10] 5.49% | viability, T/C (second compound 10 µM, first compound 0.0999 µM) 13% | viability, T/C [12] 2.87%
< 0.999 nM: IC50 (second compound 10 µM)
8.45 nM: IC50 (second compound 3.16 µM)
26.3 nM: IC50 (second compound 0.0316 µM)
20.3 nM: IC50 (second compound 0.316 µM)
30.8 nM: IC50 (second compound 1 µM)
inactive: viability, T/C (second compound 0.0316 µM, first compound 0.000999 µM) 96.5% | viability, T/C (second compound 0.0316 µM, first compound 0.00316 µM) 84.1% | viability, T/C (second compound 0.0316 µM, first compound 0.00999 µM) 70.8% | viability, T/C [1] 40.1% | viability, T/C (second compound 0.0316 µM, first compound 0.0999 µM) 30.1% | viability, T/C (second compound 0.1 µM, first compound 0.000999 µM) 95.6% | viability, T/C (second compound 0.1 µM, first compound 0.00316 µM) 91.7% | viability, T/C (second compound 0.1 µM, first compound 0.00999 µM) 64.8% | viability, T/C [3] 44.1% | viability, T/C (second compound 0.1 µM, first compound 0.0999 µM) 25.3% | viability, T/C (second compound 0.316 µM, first compound 0.000999 µM) 103% | viability, T/C (second compound 0.316 µM, first compound 0.00316 µM) 93.2% | viability, T/C (second compound 0.316 µM, first compound 0.00999 µM) 63% | viability, T/C [5] 35.9% | viability, T/C (second compound 0.316 µM, first compound 0.0999 µM) 28.6% | viability, T/C (second compound 1 µM, first compound 0.000999 µM) 85.7% | viability, T/C (second compound 1 µM, first compound 0.00316 µM) 94.4% | viability, T/C (second compound 1 µM, first compound 0.00999 µM) 63.7% | viability, T/C [7] 48% | viability, T/C (second compound 1 µM, first compound 0.0999 µM) 29.5% | viability, T/C (second compound 3.16 µM, first compound 0.000999 µM) 80% | viability, T/C (second compound 3.16 µM, first compound 0.00316 µM) 64.7% | viability, T/C (second compound 3.16 µM, first compound 0.00999 µM) 46.5% | viability, T/C [9] 30.1% | viability, T/C (second compound 3.16 µM, first compound 0.0999 µM) 24.6% | viability, T/C (second compound 10 µM, first compound 0.000999 µM) 18.2% | viability, T/C (second compound 10 µM, first compound 0.00316 µM) 17.7% | viability, T/C (second compound 10 µM, first compound 0.00999 µM) 11.3% | viability, T/C [11] 10.3%
24.8 nM: IC50 (second compound 0.1 µM)

Nc1ccn(C2OC(CO)C(O)C2(F)F)c(=O)n1 (centres undefined) + CN(C)c1ccc(Nc2c3ccc(NC(=O)CCN4CCCC4)cc3nc3cc(NC(=O)CCN4CCCC4)ccc23)cc1
active: viability, T/C [1] 9.1% | viability, T/C (second compound 0.0316 µM, first compound 0.1 µM) 2.14% | viability, T/C [2] 2.5% | viability, T/C (second compound 0.0316 µM, first compound 1 µM) 3.16% | viability, T/C (second compound 0.0316 µM, first compound 3.16 µM) 3.03% | viability, T/C (second compound 0.0316 µM, first compound 10 µM) 2.58% | viability, T/C [3] 7.88% | viability, T/C (second compound 0.1 µM, first compound 0.1 µM) 2.78% | viability, T/C [4] 2.67% | viability, T/C (second compound 0.1 µM, first compound 1 µM) 2.57% | viability, T/C (second compound 0.1 µM, first compound 3.16 µM) 2.19% | viability, T/C (second compound 0.1 µM, first compound 10 µM) 2.48% | viability, T/C [5] 6.92% | viability, T/C (second compound 0.316 µM, first compound 0.1 µM) 2.8% | viability, T/C [6] 3.02% | viability, T/C (second compound 0.316 µM, first compound 1 µM) 2.49% | viability, T/C (second compound 0.316 µM, first compound 3.16 µM) 2.88% | viability, T/C (second compound 0.316 µM, first compound 10 µM) 2.91% | viability, T/C [7] 7.45% | viability, T/C (second compound 1 µM, first compound 0.1 µM) 2.12% | viability, T/C [8] 2.71% | viability, T/C (second compound 1 µM, first compound 1 µM) 2.43% | viability, T/C (second compound 1 µM, first compound 3.16 µM) 2.45% | viability, T/C (second compound 1 µM, first compound 10 µM) 2.25% | viability, T/C [9] 8.52% | viability, T/C (second compound 3.16 µM, first compound 0.1 µM) 3.21% | viability, T/C [10] 2.06% | viability, T/C (second compound 3.16 µM, first compound 1 µM) 2.2% | viability, T/C (second compound 3.16 µM, first compound 3.16 µM) 2.24% | viability, T/C (second compound 3.16 µM, first compound 10 µM) 1.81% | viability, T/C [11] 7.17% | viability, T/C (second compound 10 µM, first compound 0.1 µM) 2.02% | viability, T/C [12] 2.12% | viability, T/C (second compound 10 µM, first compound 1 µM) 1.7% | viability, T/C (second compound 10 µM, first compound 3.16 µM) 1.53% | viability, T/C (second compound 10 µM, first compound 10 µM) 1.39%
< 31.6 nM: IC50 (second compound 0.0316 µM) | IC50 (second compound 0.1 µM) | IC50 (second compound 0.316 µM) | IC50 (second compound 1 µM) | IC50 (second compound 3.16 µM) | IC50 (second compound 10 µM)
